Measured values as given in ChEMBL document CHEMBL3046568, “Synthesis, antimicrobial and DNA cleavage studies of some 4-aryloxymethylcoumarins obtained by reaction of 4-bromomethylcoumarins with bidentate nucleophiles” (2012).
Values after ≈ are worked out from the molar mass of the structure shown. Each block holds one compound with its values, some of them ahead of it. Active and inactive are the calls of the source. The rule behind the calls is not given here.

What was measured:
Bacillus subtilis = experiment: Antibacterial activity against Bacillus subtilis MTCC 297 after 24 hr by disk diffusion method; format: functional; details: for MIC: Bacillus subtilis, MTCC 297, 24 h
Aspergillus niger [1] = experiment: Induction of Aspergillus niger DNA cleavage at 50 ug after 2 hr by agarose gel electrophoresis
Aspergillus niger [2] = experiment: Antifungal activity against Aspergillus niger after 3 to 4 days by serial dilution method; format: functional; details: for MIC: Aspergillus niger
Staphylococcus aureus [3] = experiment: Antibacterial activity against Staphylococcus aureus MTCC 3160 after 24 hr by disk diffusion method; format: functional; details: for MIC: Staphylococcus aureus, MTCC 3160, 24 h
Staphylococcus aureus [4] = experiment: Induction of Staphylococcus aureus MTCC 3160 DNA cleavage at 50 ug after 2 hr by agarose gel electrophoresis
Escherichia coli [5] = experiment: Induction of Escherichia coli MTCC 1089 DNA cleavage at 50 ug after 2 hr by agarose gel electrophoresis
Klebsiella pneumoniae = experiment: Antibacterial activity against Klebsiella pneumoniae MTCC 3384 after 24 hr by disk diffusion method; format: functional; details: for MIC: Klebsiella pneumoniae, MTCC 3384, 24 h
Enterococcus faecalis = experiment: Antibacterial activity against Enterococcus faecalis MTCC 3382 after 24 hr by disk diffusion method; format: functional; details: for MIC: Enterococcus faecalis, MTCC 3382, 24 h
Fusarium oxysporum = experiment: Antifungal activity against Fusarium oxysporum after 3 to 4 days by serial dilution method; format: functional; details: for MIC: Fusarium oxysporum
Candida albicans = experiment: Antifungal activity against Candida albicans after 3 to 4 days by serial dilution method; format: functional; details: for MIC: Candida albicans
Pseudomonas aeruginosa = experiment: Antibacterial activity against Pseudomonas aeruginosa MTCC 1034 after 24 hr by disk diffusion method; format: functional; details: for MIC: Pseudomonas aeruginosa, MTCC 1034, 24 h
Mucor fuscus = experiment: Antifungal activity against Mucor fuscus after 3 to 4 days by serial dilution method; format: functional; details: for MIC: Mucor fuscus
Penicillium chrysogenum = experiment: Antifungal activity against Penicillium chrysogenum after 3 to 4 days by serial dilution method; format: functional; details: for MIC: Penicillium chrysogenum
Escherichia coli [6] = experiment: Antibacterial activity against Escherichia coli MTCC 1089 after 24 hr by disk diffusion method; format: functional; details: for MIC: Escherichia coli, MTCC 1089, 24 h
Aspergillus fumigatus = experiment: Antifungal activity against Aspergillus fumigatus after 3 to 4 days by serial dilution method; format: functional; details: for MIC: Aspergillus fumigatus

Compound: Cc1ccc2c(COc3cccc(OCc4cc(=O)oc5cc(C)ccc45)c3)cc(=O)oc2c1
inhibition zone (IZ) (Bacillus subtilis): 14 mm
MIC (Bacillus subtilis): 12.5 µg/mL (≈ 27.5 µM)
Activity (Aspergillus niger [1]): inactive
inhibition zone (IZ) (Aspergillus niger [2]): 16 mm
MIC (Aspergillus niger [2]): 12.5 µg/mL (≈ 27.5 µM)
inhibition zone (IZ) (Staphylococcus aureus [3]): 12 mm
MIC (Staphylococcus aureus [3]): 25 µg/mL (≈ 55 µM)
Activity (Staphylococcus aureus [4]): inactive
Activity (Escherichia coli [5]): inactive
inhibition zone (IZ) (Klebsiella pneumoniae): 13 mm
MIC (Klebsiella pneumoniae): 12.5 µg/mL (≈ 27.5 µM)
inhibition zone (IZ) (Enterococcus faecalis): 16 mm
MIC (Enterococcus faecalis): 12.5 µg/mL (≈ 27.5 µM)
MIC (Fusarium oxysporum): > 100 µg/mL
inhibition zone (IZ) (Candida albicans): 8 mm
MIC (Candida albicans): 25 µg/mL (≈ 55 µM)
inhibition zone (IZ) (Pseudomonas aeruginosa): 14 mm
MIC (Pseudomonas aeruginosa): 25 µg/mL (≈ 55 µM)
inhibition zone (IZ) (Mucor fuscus): 15 mm
MIC (Mucor fuscus): 25 µg/mL (≈ 55 µM)
inhibition zone (IZ) (Penicillium chrysogenum): 15 mm
MIC (Penicillium chrysogenum): 25 µg/mL (≈ 55 µM)
MIC (Escherichia coli [6]): > 100 µg/mL
inhibition zone (IZ) (Aspergillus fumigatus): 17 mm
MIC (Aspergillus fumigatus): 12.5 µg/mL (≈ 27.5 µM)

Compound: CCN(CC)c1cccc(OCc2cc(=O)oc3ccc(Br)cc23)c1
inhibition zone (IZ) (Bacillus subtilis): 17 mm
MIC (Bacillus subtilis): 6.25 µg/mL (≈ 15.5 µM)
Activity (Aspergillus niger [1]): Active
inhibition zone (IZ) (Aspergillus niger [2]): 20 mm
MIC (Aspergillus niger [2]): 6.25 µg/mL (≈ 15.5 µM)
inhibition zone (IZ) (Staphylococcus aureus [3]): 18 mm
MIC (Staphylococcus aureus [3]): 6.25 µg/mL (≈ 15.5 µM)
Activity (Staphylococcus aureus [4]): Active
Activity (Escherichia coli [5]): Active
inhibition zone (IZ) (Klebsiella pneumoniae): 18 mm
MIC (Klebsiella pneumoniae): 6.25 µg/mL (≈ 15.5 µM)
inhibition zone (IZ) (Enterococcus faecalis): 19 mm
MIC (Enterococcus faecalis): 6.25 µg/mL (≈ 15.5 µM)
inhibition zone (IZ) (Fusarium oxysporum): 14 mm
MIC (Fusarium oxysporum): 25 µg/mL (≈ 62.1 µM)
inhibition zone (IZ) (Candida albicans): 16 mm
MIC (Candida albicans): 12.5 µg/mL (≈ 31.1 µM)
inhibition zone (IZ) (Pseudomonas aeruginosa): 23 mm
MIC (Pseudomonas aeruginosa): 6.25 µg/mL (≈ 15.5 µM)
inhibition zone (IZ) (Mucor fuscus): 18 mm
MIC (Mucor fuscus): 12.5 µg/mL (≈ 31.1 µM)
inhibition zone (IZ) (Penicillium chrysogenum): 21 mm
MIC (Penicillium chrysogenum): 6.25 µg/mL (≈ 15.5 µM)
inhibition zone (IZ) (Escherichia coli [6]): 15 mm
MIC (Escherichia coli [6]): 12.5 µg/mL (≈ 31.1 µM)
inhibition zone (IZ) (Aspergillus fumigatus): 20 mm
MIC (Aspergillus fumigatus): 6.25 µg/mL (≈ 15.5 µM)

Compound: O=c1cc(COc2cccc(O)c2)c2ccc3ccccc3c2o1
inhibition zone (IZ) (Bacillus subtilis): 12 mm
MIC (Bacillus subtilis): 25 µg/mL (≈ 78.5 µM)
Activity (Aspergillus niger [1]): inactive
inhibition zone (IZ) (Aspergillus niger [2]): 17 mm
MIC (Aspergillus niger [2]): 12.5 µg/mL (≈ 39.3 µM)
inhibition zone (IZ) (Staphylococcus aureus [3]): 10 mm
MIC (Staphylococcus aureus [3]): 25 µg/mL (≈ 78.5 µM)
Activity (Staphylococcus aureus [4]): inactive
Activity (Escherichia coli [5]): inactive
inhibition zone (IZ) (Klebsiella pneumoniae): 14 mm
MIC (Klebsiella pneumoniae): 12.5 µg/mL (≈ 39.3 µM)
inhibition zone (IZ) (Enterococcus faecalis): 13 mm
MIC (Enterococcus faecalis): 25 µg/mL (≈ 78.5 µM)
inhibition zone (IZ) (Fusarium oxysporum): 12 mm
MIC (Fusarium oxysporum): 25 µg/mL (≈ 78.5 µM)
inhibition zone (IZ) (Candida albicans): 13 mm
MIC (Candida albicans): 12.5 µg/mL (≈ 39.3 µM)
inhibition zone (IZ) (Pseudomonas aeruginosa): 19 mm
MIC (Pseudomonas aeruginosa): 6.25 µg/mL (≈ 19.6 µM)
inhibition zone (IZ) (Mucor fuscus): 13 mm
MIC (Mucor fuscus): 25 µg/mL (≈ 78.5 µM)
inhibition zone (IZ) (Penicillium chrysogenum): 16 mm
MIC (Penicillium chrysogenum): 25 µg/mL (≈ 78.5 µM)
inhibition zone (IZ) (Escherichia coli [6]): 13 mm
MIC (Escherichia coli [6]): 25 µg/mL (≈ 78.5 µM)
inhibition zone (IZ) (Aspergillus fumigatus): 15 mm
MIC (Aspergillus fumigatus): 12.5 µg/mL (≈ 39.3 µM)

Compound: O=c1cc(COc2cccc(OCc3cc(=O)oc4ccc5ccccc5c34)c2)c2c(ccc3ccccc32)o1
inhibition zone (IZ) (Bacillus subtilis): 12 mm
MIC (Bacillus subtilis): 25 µg/mL (≈ 47.5 µM)
Activity (Aspergillus niger [1]): inactive
inhibition zone (IZ) (Aspergillus niger [2]): 16 mm
MIC (Aspergillus niger [2]): 12.5 µg/mL (≈ 23.7 µM)
inhibition zone (IZ) (Staphylococcus aureus [3]): 12 mm
MIC (Staphylococcus aureus [3]): 25 µg/mL (≈ 47.5 µM)
Activity (Staphylococcus aureus [4]): inactive
Activity (Escherichia coli [5]): inactive
inhibition zone (IZ) (Klebsiella pneumoniae): 14 mm
MIC (Klebsiella pneumoniae): 12.5 µg/mL (≈ 23.7 µM)
inhibition zone (IZ) (Enterococcus faecalis): 11 mm
MIC (Enterococcus faecalis): 25 µg/mL (≈ 47.5 µM)
inhibition zone (IZ) (Fusarium oxysporum): 13 mm
MIC (Fusarium oxysporum): 25 µg/mL (≈ 47.5 µM)
inhibition zone (IZ) (Candida albicans): 13 mm
MIC (Candida albicans): 12.5 µg/mL (≈ 23.7 µM)
inhibition zone (IZ) (Pseudomonas aeruginosa): 17 mm
MIC (Pseudomonas aeruginosa): 12.5 µg/mL (≈ 23.7 µM)
inhibition zone (IZ) (Mucor fuscus): 15 mm
MIC (Mucor fuscus): 25 µg/mL (≈ 47.5 µM)
inhibition zone (IZ) (Penicillium chrysogenum): 15 mm
MIC (Penicillium chrysogenum): 25 µg/mL (≈ 47.5 µM)
inhibition zone (IZ) (Escherichia coli [6]): 11 mm
MIC (Escherichia coli [6]): 25 µg/mL (≈ 47.5 µM)
inhibition zone (IZ) (Aspergillus fumigatus): 15 mm
MIC (Aspergillus fumigatus): 12.5 µg/mL (≈ 23.7 µM)

Compound: CCN(CC)c1cccc(OCc2cc(=O)oc3ccc(C)cc23)c1
inhibition zone (IZ) (Bacillus subtilis): 14 mm
MIC (Bacillus subtilis): 12.5 µg/mL (≈ 37 µM)
Activity (Aspergillus niger [1]): inactive
inhibition zone (IZ) (Aspergillus niger [2]): 18 mm
MIC (Aspergillus niger [2]): 12.5 µg/mL (≈ 37 µM)
inhibition zone (IZ) (Staphylococcus aureus [3]): 15 mm
MIC (Staphylococcus aureus [3]): 12.5 µg/mL (≈ 37 µM)
Activity (Staphylococcus aureus [4]): inactive
Activity (Escherichia coli [5]): inactive
inhibition zone (IZ) (Klebsiella pneumoniae): 13 mm
inhibition zone (IZ) (Enterococcus faecalis): 17 mm
MIC (Enterococcus faecalis): 6.25 µg/mL (≈ 18.5 µM)
inhibition zone (IZ) (Fusarium oxysporum): 9 mm
MIC (Fusarium oxysporum): 50 µg/mL (≈ 148 µM)
inhibition zone (IZ) (Candida albicans): 10 mm
MIC (Candida albicans): 25 µg/mL (≈ 74.1 µM)
inhibition zone (IZ) (Pseudomonas aeruginosa): 15 mm
MIC (Pseudomonas aeruginosa): 25 µg/mL (≈ 74.1 µM)
inhibition zone (IZ) (Mucor fuscus): 16 mm
MIC (Mucor fuscus): 12.5 µg/mL (≈ 37 µM)
inhibition zone (IZ) (Penicillium chrysogenum): 17 mm
MIC (Penicillium chrysogenum): 12.5 µg/mL (≈ 37 µM)
inhibition zone (IZ) (Escherichia coli [6]): 10 mm
MIC (Escherichia coli [6]): 50 µg/mL (≈ 148 µM)
inhibition zone (IZ) (Aspergillus fumigatus): 16 mm
MIC (Aspergillus fumigatus): 12.5 µg/mL (≈ 37 µM)

The next lines start with results.

MIC (Bacillus subtilis): 12.5 µg/mL (≈ 38.7 µM)
Activity (Aspergillus niger [1]): inactive
MIC (Aspergillus niger [2]): 6.25 µg/mL (≈ 19.3 µM)
MIC (Staphylococcus aureus [3]): 12.5 µg/mL (≈ 38.7 µM)
Activity (Staphylococcus aureus [4]): inactive
Activity (Escherichia coli [5]): inactive
MIC (Klebsiella pneumoniae): 12.5 µg/mL (≈ 38.7 µM)
MIC (Enterococcus faecalis): 12.5 µg/mL (≈ 38.7 µM)
MIC (Fusarium oxysporum): 50 µg/mL (≈ 155 µM)
MIC (Candida albicans): 25 µg/mL (≈ 77.3 µM)
MIC (Pseudomonas aeruginosa): 12.5 µg/mL (≈ 38.7 µM)
MIC (Mucor fuscus): 12.5 µg/mL (≈ 38.7 µM)
MIC (Penicillium chrysogenum): 12.5 µg/mL (≈ 38.7 µM)
MIC (Escherichia coli [6]): 25 µg/mL (≈ 77.3 µM)
MIC (Aspergillus fumigatus): 12.5 µg/mL (≈ 38.7 µM)
Compound: CC(=O)Nc1cccc(OCc2cc(=O)oc3cc(C)ccc23)c1
inhibition zone (IZ) (Bacillus subtilis): 15 mm
inhibition zone (IZ) (Aspergillus niger [2]): 19 mm
inhibition zone (IZ) (Staphylococcus aureus [3]): 14 mm
inhibition zone (IZ) (Klebsiella pneumoniae): 14 mm
inhibition zone (IZ) (Enterococcus faecalis): 14 mm
inhibition zone (IZ) (Fusarium oxysporum): 9 mm
inhibition zone (IZ) (Candida albicans): 9 mm
inhibition zone (IZ) (Pseudomonas aeruginosa): 16 mm
inhibition zone (IZ) (Mucor fuscus): 16 mm
inhibition zone (IZ) (Penicillium chrysogenum): 18 mm
inhibition zone (IZ) (Escherichia coli [6]): 10 mm
inhibition zone (IZ) (Aspergillus fumigatus): 16 mm

MIC (Bacillus subtilis): 6.25 µg/mL (≈ 18 µM)
Activity (Aspergillus niger [1]): Active
MIC (Aspergillus niger [2]): 6.25 µg/mL (≈ 18 µM)
MIC (Staphylococcus aureus [3]): 6.25 µg/mL (≈ 18 µM)
Activity (Staphylococcus aureus [4]): Active
Activity (Escherichia coli [5]): Active
MIC (Klebsiella pneumoniae): 6.25 µg/mL (≈ 18 µM)
MIC (Enterococcus faecalis): 6.25 µg/mL (≈ 18 µM)
MIC (Fusarium oxysporum): 25 µg/mL (≈ 72 µM)
MIC (Candida albicans): 6.25 µg/mL (≈ 18 µM)
MIC (Pseudomonas aeruginosa): 6.25 µg/mL (≈ 18 µM)
MIC (Mucor fuscus): 12.5 µg/mL (≈ 36 µM)
MIC (Penicillium chrysogenum): 6.25 µg/mL (≈ 18 µM)
MIC (Escherichia coli [6]): 12.5 µg/mL (≈ 36 µM)
MIC (Aspergillus fumigatus): 12.5 µg/mL (≈ 36 µM)
Compound: O=c1cc(COc2cccc(O)c2)c2cc(Br)ccc2o1
inhibition zone (IZ) (Bacillus subtilis): 17 mm
inhibition zone (IZ) (Aspergillus niger [2]): 21 mm
inhibition zone (IZ) (Staphylococcus aureus [3]): 19 mm
inhibition zone (IZ) (Klebsiella pneumoniae): 19 mm
inhibition zone (IZ) (Enterococcus faecalis): 18 mm
inhibition zone (IZ) (Fusarium oxysporum): 13 mm
inhibition zone (IZ) (Candida albicans): 17 mm
inhibition zone (IZ) (Pseudomonas aeruginosa): 23 mm
inhibition zone (IZ) (Mucor fuscus): 18 mm
inhibition zone (IZ) (Penicillium chrysogenum): 19 mm
inhibition zone (IZ) (Escherichia coli [6]): 15 mm
inhibition zone (IZ) (Aspergillus fumigatus): 18 mm
